Measurements from US10800782B2, “Inhibitors of cellular metabolic processes” (Agios Pharmaceuticals, Inc., priority 2016, dated 2020).

The compounds below were run against T1, MAT2A (Homo sapiens, UniProt P31153) (assay: MAT2A biochemical assay (colorimetric inorganic phosphate detection, PiColorLock)). Settings: recombinant His6-tagged MAT2A 1 μg/ml; 60 minutes preincubation at 25° C.; L-Met 80 μM, ATP 100 μM; 60 minutes reaction; read at 623 nm; read-out: MAT2A Inhibition Score.
T1 construct: His6; made in house; host or cells: SF9 insect cells
Method: In the reaction catalyzed by MAT2A enzyme, L-Met and ATP were converted to SAM, inorganic phosphate, and inorganic diphosphate. […] The concentration of malachite green phosphomolybdate produced in the detection reaction is thus directly related to the quantity of product produced by the MAT2A enzyme. Multiple commercial kits exist for this method of phosphate detection and quantification, such as PiColorLock Gold (Innova Biosciences). Typical reaction was performed in 50 μl final volume, containing buffer (Tris, pH 8.0, 50 mM KCl, 15 mM MgCl2, 300 uM EDTA, bovine serum albumin at 0.005% w/v) and 1 μg/ml MAT2A. Compounds were added in 1 μl of DMSO at the desired concentration; a typical dose response curve contained ten points with three-fold dilution between compound concentrations. […] The reaction was allowed to proceed for 60 minutes at room temperature then halted by the addition of 13 μl of PiColor Lock reagent. After a further 5 minutes of incubation at room temperature, […] of PiColor Stabilizer was added and the reactions were further incubated at 25° C. for 25 minutes. […] Recombinant MAT2A protein was expressed in SF9 insect cells and purified by metal chelate affinity chromatography, using methods well known in the art. After expression of His6-tagged MAT2A cells were disrupted by 4 passes through an M-Yl 10 Micro fluidizer (Microfluidics) set to 500 psi, and then centrifuged at 22,000 rcf for 20 min at 4° C. The supernatant was harvested and loaded at 15 cm/h on a Histrap FF 5*1 ml column (GE) which was equilibrated with 50 mM Tris, 500 mM NaCl, pH7.4. Host cell contaminants were removed by washing the column with equilibration buffer followed by equilibration buffer containing 20 mM imidazole and 60 mM imidazole to baseline. MAT2A protein was eluted by the addition of buffer containing 250 mM imidazole, dialized into 50 mM NaCl, 50 mM Tris, pH 7.4, flash frozen in liquid nitrogen, and stored at −80° C. until use.

T1 sequence (P31153 whole entry): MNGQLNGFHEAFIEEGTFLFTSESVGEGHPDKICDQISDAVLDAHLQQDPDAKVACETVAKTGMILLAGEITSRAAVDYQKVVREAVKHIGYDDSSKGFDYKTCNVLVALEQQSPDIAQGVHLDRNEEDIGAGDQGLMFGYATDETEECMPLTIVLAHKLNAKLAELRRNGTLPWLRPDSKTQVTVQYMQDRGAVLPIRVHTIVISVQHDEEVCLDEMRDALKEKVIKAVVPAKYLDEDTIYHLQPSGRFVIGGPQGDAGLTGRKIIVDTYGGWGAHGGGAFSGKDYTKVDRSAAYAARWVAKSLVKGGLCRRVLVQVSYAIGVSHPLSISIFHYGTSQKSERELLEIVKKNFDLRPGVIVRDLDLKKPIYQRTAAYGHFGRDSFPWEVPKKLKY

SMILES	IC50 [nM]
Cc1[nH]c2c(-c3ccccc3)c(-c3ccc(N)cc3)nn2c(=O)c1-c1ccc2ncccc2c1 [Compound 250, 2-(4-aminophenyl)-5-methyl-3-phenyl-6-(quinolin-6-yl)pyrazolo[1,5-a]pyrimidin-7(4H)-one]	< 100
Cc1[nH]c2c(C3=CCCCC3)c(-c3ccccc3)nn2c(=O)c1-c1ccc2ncccc2c1 [Compound 216, 3-(cyclohex-1-en-1-yl)-5-methyl-2-phenyl-6-(quinolin-6-yl)pyrazolo[1,5-a]pyrimidin-7(4H)-one]	< 100
Cc1[nH]c2c(N3CCCCC3)c(-c3ccccc3)nn2c(=O)c1N1CCC(O)CC1 [Compound 311, 6-(4-hydroxypiperidin-1-yl)-5-methyl-2-phenyl-3-(piperidin-1-yl)pyrazolo[1,5-a]pyrimidin-7(4H)-one]	100 to 1000
COc1ccc(-c2nn3c(=O)c(-c4ccc5ncccc5c4)c(C)[nH]c3c2-c2ccccc2)cn1 [Compound 349, 2-(6-methoxypyridin-3-yl)-5-methyl-3-phenyl-6-(quinolin-6-yl)pyrazolo[1,5-a]pyrimidin-7(4H)-one]	1000 to 10000
Cc1[nH]c2c(C3=CCCC3)c(-c3ccccc3)nn2c(=O)c1-c1ccc2ncccc2c1 [Compound 215, 3-(cyclopent-1-en-1-yl)-5-methyl-2-phenyl-6-(quinolin-6-yl)pyrazolo[1,5-a]pyrimidin-7(4H)-one]	< 100
O=c1c(-c2ccc3nccnc3c2)c(Nc2ccon2)[nH]c2c(C3=CCCCC3)c(-c3ccccc3)nn12 [Compound 177, 3-(cyclohex-1-en-1-yl)-5-(isoxazol-3-ylamino)-2-phenyl-6-(quinoxalin-6-yl)pyrazolo[1,5-a]pyrimidin-7(4H)-one]	< 100
Cc1[nH]c2c(N3CCCCC3)c(-c3ccccc3)nn2c(=O)c1-c1ccc(O)nc1 [Compound 309, 6-(6-hydroxypyridin-3-yl)-5-methyl-2-phenyl-3-(piperidin-1-yl)pyrazolo[1,5-a]pyrimidin-7(4H)-one]	100 to 1000
Cc1[nH]c2c(N3CCCCC3)c(-c3ccccc3)nn2c(=O)c1-c1ccc2nccnc2c1 [Compound 255, 5-methyl-2-phenyl-3-(piperidin-1-yl)-6-(quinoxalin-6-yl)pyrazolo[1,5-a]pyrimidin-7(4H)-one]	< 100
CCOC(=O)c1nnc(Nc2[nH]c3c(-c4ccccc4)c(-c4ccccc4)nn3c(=O)c2-c2ccc3ncccc3c2)o1 [Compound 171, ethyl 5-((7-oxo-2,3-diphenyl-6-(quinolin-6-yl)-4,7-dihydropyrazolo[1,5-a]pyrimidin-5-yl)amino)-1,3,4-oxadiazole-2-carboxylate]	< 100
COc1ccc(-c2c(C)n(C)c3c(N4CCCCC4)c(-c4ccccc4)nn3c2=O)cc1 [Compound 269, 6-(4-methoxyphenyl)-4,5-dimethyl-2-phenyl-3-(piperidin-1-yl)pyrazolo[1,5-a]pyrimidin-7(4H)-one]	< 100
NCc1[nH]c2c(C3=CCCCC3)c(-c3ccccc3)nn2c(=O)c1-c1ccc2ncccc2c1 [Compound 233, 5-(aminomethyl)-3-(cyclohex-1-en-1-yl)-2-phenyl-6-(quinolin-6-yl)pyrazolo[1,5-a]pyrimidin-7(4H)-one]	< 100
O=c1c(-c2ccc3ncccc3c2)c(Nc2cnccn2)[nH]c2c(C3=CCCCC3)c(-c3ccccc3)nn12 [Compound 175, 3-cyclohexenyl-2-phenyl-5-(pyrazin-2-ylamino)-6-(quinolin-6-yl)pyrazolo[1,5-a]pyrimidin-7(4H)-one]	< 100
Cc1[nH]c2c(C3=CCCCC3)c(-c3ccccc3)nn2c(=O)c1-c1ccc(OP(=O)(O)O)cc1 [Compound 295, 4-(3-(cyclohex-1-en-1-yl)-5-methyl-7-oxo-2-phenyl-4,7-dihydropyrazolo[1,5-a]pyrimidin-6-yl)phenyl dihydrogen phosphate]	< 100
Cc1[nH]c2c(C3=CCCCC3)c(-c3ccccc3)nn2c(=O)c1-c1ccc(OC(=O)[C@@H](N)C(C)C)cc1 [Compound 294, (S)-4-(3-cyclohexenyl-5-methyl-7-oxo-2-phenyl-4,7-dihydropyrazolo[1,5-a]pyrimidin-6-yl)phenyl 2-amino-3-methylbutanoate]	< 100
Cc1nc2ccc(-c3c(C)[nH]c4c(-c5ccccc5)c(-c5ccccc5)nn4c3=O)cc2cc1O [Compound 247, 6-(3-hydroxy-2-methylquinolin-6-yl)-5-methyl-2,3-diphenylpyrazolo[1,5-a]pyrimidin-7(4H)-one]	< 100
Cc1[nH]c2c(C3=CCCCC3)c(-c3ccccc3)nn2c(=O)c1-c1ccc(OCOP(=O)(O)O)cc1 [Compound 296, (4-(3-cyclohexenyl-5-methyl-7-oxo-2-phenyl-4,7-dihydropyrazolo[1,5-a]pyrimidin-6-yl)phenoxy)methyl dihydrogen phosphate]	< 100
COc1ccc(-c2c(C)[nH]c3c(-c4ccccc4)c(-c4ccccc4)nn3c2=O)cn1 [Compound 333, 6-(6-methoxypyridin-3-yl)-5-methyl-2,3-diphenylpyrazolo[1,5-a]pyrimidin-7(4H)-one]	100 to 1000
Cc1[nH]c2c(-c3ccccc3)c(-c3ccccc3)nn2c(=O)c1C1=CCC(O)CC1 (stereo not drawn) [Compound 337, 6-(4-hydroxycyclohex-1-en-1-yl)-5-methyl-2,3-diphenylpyrazolo[1,5-a]pyrimidin-7(4H)-one]	100 to 1000
Cc1[nH]c2c(N3CCCCC3)c(-c3ccccc3)nn2c(=O)c1C1CC1 [Compound 298, 6-cyclopropyl-5-methyl-2-phenyl-3-(piperidin-1-yl)pyrazolo[1,5-a]pyrimidin-7(4H)-one]	100 to 1000
O=C(CO)NCc1[nH]c2c(-c3ccccc3)c(-c3ccccc3)nn2c(=O)c1-c1ccc2ncccc2c1 [Compound 227, 2-hydroxy-N-((7-oxo-2,3-diphenyl-6-(quinolin-6-yl)-4,7-dihydropyrazolo[1,5-a]pyrimidin-5-yl)methyl)acetamide]	< 100

The next lines start with the values.

IC50 [nM]	SMILES
< 100	COc1ccc(-c2c(Nc3cscn3)[nH]c3c(-c4ccccc4)c(-c4ccccc4)nn3c2=O)cc1 [Compound 192, 6-(4-methoxyphenyl)-2,3-diphenyl-5-(thiazol-4-ylamino)pyrazolo[1,5-a]pyrimidin-7(4H)-one]
100 to 1000	CCc1[nH]c2c(-c3ccccc3)c(-c3ccccc3)nn2c(=O)c1-c1ccc(OC)cc1 [Compound 312, 5-ethyl-6-(4-methoxyphenyl)-2,3-diphenylpyrazolo[1,5-a]pyrimidin-7(4H)-one]
< 100	COc1ccc(-c2c(Nc3cccc(C(N)=O)n3)[nH]c3c(-c4ccccc4)c(-c4ccccc4)nn3c2=O)cc1 [Compound 112, 6-((6-(4-methoxyphenyl)-7-oxo-2,3-diphenyl-4,7-dihydropyrazolo[1,5-a]pyrimidin-5-yl)amino)picolinamide]
< 100	COc1ccc(-c2c(CNc3nc[nH]n3)[nH]c3c(-c4ccccc4)c(-c4ccccc4)nn3c2=O)cc1 [Compound 264, 5-(((1H-1,2,4-triazol-3-yl)amino)methyl)-6-(4-methoxyphenyl)-2,3-diphenylpyrazolo[1,5-a]pyrimidin-7(4H)-one]
< 100	CC(=O)Nc1[nH]c2c(-c3ccccc3)c(-c3ccccc3)nn2c(=O)c1-c1ccc2ncccc2c1 [Compound 172, N-(7-oxo-2,3-diphenyl-6-(quinolin-6-yl)-4,7-dihydropyrazolo[1,5-a]pyrimidin-5-yl)acetamide]
< 100	COc1ccc(-c2c(Nc3ccn(COC(=O)[C@@H](N)C(C)C)n3)[nH]c3c(-c4ccccc4)c(-c4ccccc4)nn3c2=O)cc1 [Compound 201, (S)-(3-((6-(4-methoxyphenyl)-7-oxo-2,3-diphenyl-4,7-dihydropyrazolo[1,5-a]pyrimidin-5-yl)amino)-1H-pyrazol-1-yl)methyl 2-amino-3-methylbutanoate]
< 100	COc1ccc(-c2c(Nc3ccc(O)cn3)[nH]c3c(-c4ccccc4)c(-c4ccccc4)nn3c2=O)cc1 [Compound 108, 5-(5-hydroxypyridin-2-ylamino)-6-(4-methoxyphenyl)-2,3-diphenylpyrazolo[1,5-a]pyrimidin-7(4H)-one]
< 100	COc1ccc(-c2c(Nc3ccncn3)[nH]c3c(-c4ccccc4)c(-c4ccccc4)nn3c2=O)cc1 [Compound 116, 6-(4-methoxyphenyl)-2,3-diphenyl-5-(pyrimidin-4-ylamino)pyrazolo[1,5-a]pyrimidin-7(4H)-one]
< 100	COc1ccc(-c2c(Nc3cnccn3)[nH]c3c(-c4ccccc4)c(-c4ccccc4)nn3c2=O)cc1 [Compound 126, 6-(4-methoxyphenyl)-2,3-diphenyl-5-(pyrazin-2-ylamino)pyrazolo[1,5-a]pyrimidin-7(4H)-one]
100 to 1000	COc1ccc(-c2c(Cn3cnnn3)[nH]c3c(-c4ccccc4)c(-c4ccccc4)nn3c2=O)cc1 [Compound 338, 5-((1H-tetrazol-1-yl)methyl)-6-(4-methoxyphenyl)-2,3-diphenylpyrazolo[1,5-a]pyrimidin-7(4H)-one]
